In one experiment the target is T1, PARP7 (Homo sapiens, UniProt Q7Z3E1).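 Also: MSD light signal quantifying PARP7 captured by a plate-immobilized probe, read after 1.5 h equilibration plus 1.5 h with SULFO-TAG anti-GST antibody at room temperature.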
T1 sequence (Q7Z3E1 1-657): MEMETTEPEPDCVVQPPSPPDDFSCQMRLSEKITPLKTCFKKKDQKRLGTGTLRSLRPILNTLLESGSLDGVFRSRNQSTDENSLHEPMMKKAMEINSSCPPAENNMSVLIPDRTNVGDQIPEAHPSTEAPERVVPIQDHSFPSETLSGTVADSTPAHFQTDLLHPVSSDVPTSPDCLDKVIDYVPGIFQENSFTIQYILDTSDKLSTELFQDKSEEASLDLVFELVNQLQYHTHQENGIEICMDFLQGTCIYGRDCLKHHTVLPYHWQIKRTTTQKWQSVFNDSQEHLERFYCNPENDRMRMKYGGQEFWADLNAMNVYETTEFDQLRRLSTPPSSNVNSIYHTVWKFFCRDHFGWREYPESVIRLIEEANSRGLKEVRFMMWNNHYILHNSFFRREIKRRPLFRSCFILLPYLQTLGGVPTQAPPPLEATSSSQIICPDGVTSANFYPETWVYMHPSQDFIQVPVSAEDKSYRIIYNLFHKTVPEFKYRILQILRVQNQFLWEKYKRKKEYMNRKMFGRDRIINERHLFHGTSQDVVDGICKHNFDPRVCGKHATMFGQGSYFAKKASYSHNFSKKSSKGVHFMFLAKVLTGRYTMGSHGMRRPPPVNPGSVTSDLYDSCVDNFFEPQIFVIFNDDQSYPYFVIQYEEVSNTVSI
Kind of experiment: biochemical.

In experiment [1] the test system is STAT1 (phosphorylated at Tyr701) in NCI-H1373 cells. The experiment can be described thus: Phospho-STAT1 (Tyr701) LANCE Ultra TR-FRET Detection Assay. Format: cell-based. The following applies: Homo sapiens, 48 hours, induction of pSTAT1, normalized to 10 uM positive control and DMSO, 4-parameter fit, read-out: NH1373 pSTAT1 EC50. As to the method:
Phospho-STAT1 (Tyr701 LANCE Ultra TR-FRET Detection Assay
LANCE Ultra phospho-STAT1 (Tyr701) kits available from Perkin Elmer are designed for the detection of phosphorylated STAT1 in cell lysates using a simple, homogeneous LANCE Ultra sandwich assay (Cat. #TRF4028M). This assay is intended for assessing compound induction of endogenous levels of cellular STAT1 (phosphorylated at Tyr701) in NCI-H1373 cells. The NCI-H1373 cells are cultured in RPMI 1640 media containing 10% heat inactivated FBS, GlutaMAX, 1% Penicillin-Streptomycin. An Echo acoustic liquid handler is used to transfer 60 nanoliters of compound dilutions using the Echo Qualified, 384-well polypropylene microplate clear flat bottom source plates into a Greiner (#781080) cell culture microplate. NCI-H1373 cells are seeded into these compound-spotted culture plates at 30,000 cells/well in a 60 uL volume in growth media. The plates are incubated in a 5% CO2 humidified incubator at 37° C. for 48 hours. […] Briefly, 20 μL of supplemented lysis buffer is added to each well and allowed to shake for 1 hour at 400 rpm. Next, 5 ul of remixed antibody solutions (vol/vol) prepared in detection buffer are added to each well and allowed to incubate at room temperature overnight. After spinning the plate down at 300 rpm for […], the plate is read on an EnVision plate reader set up for Eu3+ Cryptate and fluorescence emission is measured at two different wavelengths (665 nm and 620 nm).
On the technique in general: In TR-FRET formats the signal depends on donor and acceptor labels being close together.

What is called IC50 is the concentration that inhibits the measured activity by half. The EC50 is the concentration that produces a half-maximal response.

Bounds are passed on as bounds.

Protocol for PARP7: Probe Displacement Assay for PARP7 Displacement of a biotinylated probe (RBN011147; Wigle et al., Cell Chemical Biology, 2020, pp. 877-887) from the PARP7 NAD+-binding site was measured in vitro using a Mesoscale Discovery electrochemiluminescent assay. […] Next, 10 μl of 10 nM PARP7 protein incubated for 1 hour at room temperature with a dose response curve of each test compound in a Greiner LDV polypropylene plate (#781201) is added to the MSD plate containing the immobilized probe. The interaction is allowed to reach equilibrium for 1.5 hours, and then 10 ul of SULFO-TAG labeled anti-GST antibody (Cat #R32AA-1) is added to each well and allowed to incubate for an additional 1.5 hours at room temperature. Finally, 10 μl of MSD read buffer T (4×, Cat. #R92C-1) is added to each well using a Bravo liquid handler to prevent air bubbles in the wells, and the plates are subsequently read in an MSD instrument. Light intensity is then measured to quantify the amount of PARP7 bound to the immobilized probe on the plate.

As for `O=C([C@@H]1C[C@@H]1CNc1cc(C(F)(F)F)c(=O)[nH]n1)N1CCN(c2ncc(C(F)(F)F)cn2)CC1` (racemic) [Example 24, Cis-(+)-4-(trifluoromethyl)-6-(((2-(4-(5-(trifluoromethyl)pyrimidin-2-yl)piperazine-1-carbonyl)cyclopropyl)methyl)amino)pyridazin-3(2H)-one], it took 1.02 nM to reach half-maximal inhibition against PARP7 (IC50). In experiment [1], the EC50 was 2940 nM.
Taken in the same sequence, the figures for `O=C(CCC[C@@H]1CCCc2c1n[nH]c(=O)c2C(F)(F)F)N1CCN(c2ncc(C(F)(F)F)cn2)CC1` (single isomer, unassigned) [Example 76] were 0.225 nM and 37.8 nM.
Turning to `O=C(CCC[C@H]1CCCc2c1n[nH]c(=O)c2C(F)(F)F)N1CCN(c2ncc(C(F)(F)F)cn2)CC1` (single isomer, unassigned) [Example 77], half-maximal inhibition against PARP7 (IC50) required 1.41 nM. Moreover, the EC50 in experiment [1] worked out at 523 nM.
Consider `O=C(CCCCc1cc(C(F)(F)F)c(=O)[nH]n1)N1CCN(c2ncc(C(F)(F)F)cn2)CC1` [Example 1, 6-(5-oxo-5-(4-(5-(trifluoromethyl)pyrimidin-2-yl)piperazin-1-yl)pentyl)-4-(trifluoromethyl)pyridazin-3(2H)-one], for which half-maximal inhibition against PARP7 (IC50) required 0.288 nM. For the same compound, in experiment [1], the concentration giving a half-maximal response (EC50) turned out to be 60.6 nM.
`O=C(Cc1ccccc1-c1cc(C(F)(F)F)c(=O)[nH]n1)N1CCN(c2ncc(C(F)(F)F)cn2)CC1` [Example 4, 6-(2-(2-oxo-2-(4-(5-(trifluoromethyl)pyrimidin-2-yl)piperazin-1-yl)ethyl)phenyl)-4-(trifluoromethyl)pyridazin-3(2H)-one] yielded a half-maximal inhibitory concentration (IC50) against PARP7 of 36.3 nM. The EC50 in experiment [1] is ≥ 10000 nM.
At PARP7, `O=C(CCc1cc(C(F)(F)F)c(=O)[nH]n1)N1CCN(c2ncc(C(F)(F)F)cn2)CC1` [Example 7, 6-(3-oxo-3-(4-(5-(trifluoromethyl)pyrimidin-2-yl)piperazin-1-yl)propyl)-4-(trifluoromethyl)pyridazin-3(2H)-one] showed a half-maximal inhibitory concentration (IC50) of 0.958 nM. The EC50 in experiment [1] is 349 nM.
On PARP7, `CC(CCCC(=O)N1CCN(c2ncc(C(F)(F)F)cn2)CC1)c1cc(C(F)(F)F)c(=O)[nH]n1` (stereo not drawn) [Example 8, 6-(6-oxo-6-(4-(5-(trifluoromethyl)pyrimidin-2-yl)piperazin-1-yl)hexan-2-yl)-4-(trifluoromethyl)pyridazin-3(2H)-one] had an IC50 of 1.39 nM. Also, in experiment [1], the EC50 is 708 nM.
On to `O=C(N1CCN(c2ncc(C(F)(F)F)cn2)CC1)C1(CCCc2cc(C(F)(F)F)c(=O)[nH]n2)CC1` [Example 9, 4-(trifluoromethyl)-6-(3-(1-(4-(5-(trifluoromethyl)pyrimidin-2-yl)piperazine-1-carbonyl)cyclopropyl)propyl)pyridazin-3(2H)-one], for which the half-inhibitory concentration (IC50) against PARP7 came to 1.44 nM. In experiment [1], the EC50 was found to be 1800 nM.
At PARP7, `O=C(CCCc1cc(C(F)(F)F)c(=O)[nH]n1)N1CCN(c2ncc(C(F)(F)F)cn2)CC1` [Example 11, 6-(4-oxo-4-(4-(5-(trifluoromethyl)pyrimidin-2-yl)piperazin-1-yl)butyl)-4-(trifluoromethyl)pyridazin-3(2H)-one] yielded an IC50 of 4.67 nM. In experiment [1], the EC50 turned out to be 1500 nM.
As for `O=C(CC1(CNc2cc(C(F)(F)F)c(=O)[nH]n2)CC1)N1CCN(c2ncc(C(F)(F)F)cn2)CC1` [Example 12, 6-(((1-(2-oxo-2-(4-(5-(trifluoromethyl)pyrimidin-2-yl)piperazin-1-yl)ethyl)cyclopropyl)methyl)amino)-4-(trifluoromethyl)pyridazin-3(2H)-one], at PARP7, it took 0.364 nM to reach half-maximal inhibition (IC50). In addition, the EC50 in experiment [1] worked out at 201 nM.
Regarding `O=C(OCCCc1cc(C(F)(F)F)c(=O)[nH]n1)N1CCN(c2ncc(C(F)(F)F)cn2)CC1` [Example 13, 3-(6-oxo-5-(trifluoromethyl)-1,6-dihydropyridazin-3-yl)propyl 4-(5-(trifluoromethyl)pyrimidin-2-yl)piperazine-1-carboxylate], half-maximal inhibition against PARP7 (IC50) required 1.33 nM. For the same compound, the concentration giving a half-maximal response (EC50) in experiment [1] worked out at 1160 nM.
Taken in the same sequence, the figures for `O=C(OC/C=C/c1cc(C(F)(F)F)c(=O)[nH]n1)N1CCN(c2ncc(C(F)(F)F)cn2)CC1` [Example 14, (E)-3-(6-oxo-5-(trifluoromethyl)-1,6-dihydropyridazin-3-yl)allyl 4-(5-(trifluoromethyl)pyrimidin-2-yl)piperazine-1-carboxylate] were 1.22 nM and 1000 nM.
As to `O=C(CCCNc1cc(C(F)(F)F)c(=O)[nH]n1)N1CCN(c2ncc(C(F)(F)F)cn2)CC1` [Example 15, 6-((4-oxo-4-(4-(5-(trifluoromethyl)pyrimidin-2-yl)piperazin-1-yl)butyl)amino)-4-(trifluoromethyl)pyridazin-3(2H)-one], the IC50 on PARP7 is 0.263 nM. Further, the EC50 in experiment [1] was found to be 71.9 nM.
The compound `O=C(CNc1cc(C(F)(F)F)c(=O)[nH]n1)N1CCN(c2ncc(C(F)(F)F)cn2)CC1` [Example 16, 6-((2-oxo-2-(4-(5-(trifluoromethyl)pyrimidin-2-yl)piperazin-1-yl)ethyl)amino)-4-(trifluoromethyl)pyridazin-3(2H)-one] gave an IC50 on PARP7 of 1.15 nM. Also, the half-maximal effective concentration (EC50) in experiment [1] came out at 171 nM.
Turning to `O=C(CCNc1cc(C(F)(F)F)c(=O)[nH]n1)N1CCN(c2ncc(C(F)(F)F)cn2)CC1` [Example 17, 6-((3-oxo-3-(4-(5-(trifluoromethyl)pyrimidin-2-yl)piperazin-1-yl)propyl)amino)-4-(trifluoromethyl)pyridazin-3(2H)-one], the IC50 against PARP7 came out at 12.1 nM. Further, in experiment [1], the EC50 was found to be 973 nM.
The compound `O=C(c1cccc(Nc2cc(C(F)(F)F)c(=O)[nH]n2)c1)N1CCN(c2ncc(C(F)(F)F)cn2)CC1` [Example 18, 4-(trifluoromethyl)-6-((3-(4-(5-(trifluoromethyl)pyrimidin-2-yl)piperazine-1-carbonyl)phenyl)amino)pyridazin-3(2H)-one] returned an IC50 against PARP7 of 32.7 nM. The EC50 in experiment [1] was ≥ 10000 nM.
In turn, `O=C(c1cccc(CNc2cc(C(F)(F)F)c(=O)[nH]n2)c1)N1CCN(c2ncc(C(F)(F)F)cn2)CC1` [Example 19, 4-(trifluoromethyl)-6-((3-(4-(5-(trifluoromethyl)pyrimidin-2-yl)piperazine-1-carbonyl)benzyl)amino)pyridazin-3(2H)-one] gave an IC50 at PARP7 of 16.3 nM. Also, the EC50 in experiment [1] was ≥ 10000 nM.
For `C[C@H](Nc1cc(C(F)(F)F)c(=O)[nH]n1)C(=O)N1CCN(c2ncc(C(F)(F)F)cn2)CC1` [Example 64, 3-[[(1S)-1-methyl-2-oxo-2-[4-[5-(trifluoromethyl)pyrimidin-2-yl]piperazin-1-yl]ethyl]amino]-5-(trifluoromethyl)-1H-pyridazin-6-one], the EC50 in experiment [1] came to 335 nM.
For the compound `O=C([C@H]1CC[C@H](Nc2cc(C(F)(F)F)c(=O)[nH]n2)C1)N1CCN(c2ncc(C(F)(F)F)cn2)CC1` [Example 65, 5-(trifluoromethyl)-3-[[(1S,3S)-3-[4-[5-(trifluoromethyl)pyrimidin-2-yl]piperazine-1-carbonyl]cyclopentyl]amino]-1H-pyridazin-6-one], in experiment [1], the EC50 was ≥ 10000 nM.
Take `C[C@@H](Nc1cc(C(F)(F)F)c(=O)[nH]n1)C(=O)N1CCN(c2ncc(C(F)(F)F)cn2)CC1` [Example 66, 3-[[(1R)-1-methyl-2-oxo-2-[4-[5-(trifluoromethyl)pyrimidin-2-yl]piperazin-1-yl]ethyl]amino]-5-(trifluoromethyl)-1H-pyridazin-6-one]: the EC50 in experiment [1] was ≥ 10000 nM.
The same measure, in the same setting: then `O=C(C[C@@H]1CCc2c1n[nH]c(=O)c2C(F)(F)F)N1CCN(c2ncc(C(F)(F)F)cn2)CC1` [Example 80, (S)-7-(2-oxo-2-(4-(5-(trifluoromethyl)pyrimidin-2-yl)piperazin-1-yl)ethyl)-4-(trifluoromethyl)-2,5,6,7-tetrahydro-3H-cyclopenta[c]pyridazin-3-one], with 429 nM; and `O=C(C[C@H]1CCc2c1n[nH]c(=O)c2C(F)(F)F)N1CCN(c2ncc(C(F)(F)F)cn2)CC1` [Example 81, (R)-7-(2-oxo-2-(4-(5-(trifluoromethyl)pyrimidin-2-yl)piperazin-1-yl)ethyl)-4-(trifluoromethyl)-2,5,6,7-tetrahydro-3H-cyclopenta[c]pyridazin-3-one], with ≥ 10000 nM.

Values taken from US20230183216A1, “PYRIDIZIN-3(2H)-ONE DERIVATIVES” (Gilead Sciences, Inc., priority 2021, published 2023).
